Publication PMC12766724, “Synthesis, Anthelmintic Activity, and Mechanism of Action of 5‑Aryl‑1H‑indoles” (Journal of Agricultural and Food Chemistry, 2025)

Legend:
C. elegans wild-type N2 = assay: Microscopic scoring (score 1-5) of worm populations prior to the Chitinase assay, L1 exposed 4 days; type: in vivo, Caenorhabditis elegans; details: 50 μM; score 1 (dead/arrested L1) to 5 (healthy)
Excerpt: Dead or mostly immobile worms, arrested at the L1 stage, received a score of 1. Populations with severely delayed development were scored as 2. More developmentally advanced, but still obviously delayed worms were given the score of 3. Adult worms that produce a noticeably lower number of progeny received a score of 4. Healthy worms that reproduce normally (i.e., hundreds of eggs and larvae are present) were scored as 5 (see Figure C for representative images). In a typical, correctly prepared experiment, vehicle-treated populations should receive a score of 5, while worms treated with ivermectin (positive control) should receive a score of 1.
(§1) After exposing L1 larvae to the compounds for 4 days, we observed the populations under a microscope and measured the Chitinase activity. The larvae produce the enzyme while hatching, and its activity is indicative of the reproductive capacity of the worms. Populations that fail to reproduce due to acute or reproductive toxicity or developmental abnormalities are detected.

C. elegans N2 wild-type = assay: Chitinase assay (reproductive capacity); type: in vivo, Caenorhabditis elegans; details: Caenorhabditis elegans
Experimental: (§2) The effect of compounds on C. elegans was evaluated using the Chitinase assay as we described previously.
as §1

[1] = tested on: C. elegans CB211 lev-1(e211) IV.; assay: Chitinase assay (reproductive capacity); type: in vivo; details: Caenorhabditis elegans; levamisole-resistant strain
Experimental: (§3) C. elegans strains used in this study were N2 (wild-type), levamisole-resistant strains ZZ15 (lev-8(x15) X) and […] (lev-1(e211) IV), ivermectin-resistant strain DA1316 (avr-14(ad1305) I; avr-15(vu227) glc-1(pk54) V), mebendazole-resistant strain […] (ben-1(e1880) III), and three strains with mutations in succinate dehydrogenase, RP2699, RP2700, and RP2702. The worms were cultivated on Nematode Growth Medium agar plates seeded with Escherichia coli OP50 in 20 °C according to the standard cultivation protocols. Strains RP2699, RP2700, and RP2702 were generated by Prof. Peter Roy’s group. All other strains and bacteria were purchased from the Caenorhabditis Genetics Center (CGC, Minneapolis, MN).
as §2
(§4) Lastly, strain DA1316 has mutations in three genes encoding subunits of the glutamate-gated chloride channel and is highly resistant to avermectins.

[2] = tested on: C. elegans CB3474 ben-1(e1880) III.; assay: Chitinase assay (reproductive capacity); type: in vivo; details: Caenorhabditis elegans; mebendazole-resistant strain
Experimental: as §3, §2, §4

[3] = tested on: C. elegans DA1316 avr-14(ad1305) I; avr-15(vu227) glc-1(pk54) V.; assay: Chitinase assay (reproductive capacity); type: in vivo; details: Caenorhabditis elegans; ivermectin-resistant strain
Experimental: as §3, §2, §4

[4] = tested on: C. elegans ZZ15 lev-8(x15) X.; assay: Chitinase assay (reproductive capacity); type: in vivo; details: Caenorhabditis elegans; levamisole-resistant strain
Experimental: as §3, §2, §4

[5] = tested on: age unsynchronized Ditylenchus destructor; assay: Motility on WMicrotracker ONE; type: in vivo
Experimental: Populations of D. destructor, kindly provided by Central Institute for Supervising and Testing in Agriculture, the Ministry of Agriculture of the Czech Republic, were maintained according to the protocol previously described here.
(§5) The effect of compounds on motility of H. contortus, D. destructor, and H. schachtii was evaluated using the WMicrotracker ONE platform according to previously published protocols. ,
(§6) The instrument evaluates the activity of small animals by counting how many times infrared light microbeams passing through the wells of a microtiter plate are interrupted. In age-unsynchronized populations of D. destructor, we observed reduced motility of worm populations treated with the halogenated derivatives i-19, i-20, and i-21 (Figures A, S2.1A, S2.2A and Table S2.1). […] The decreases in mean activity counts after 72 h of treatment at 100 μM were 85% and 97%, respectively.

[6] = tested on: Heterodera schachtii second-stage juveniles (J2); assay: Motility on WMicrotracker ONE; type: in vivo
Experimental: H. schachtii was maintained on mustard (Sinapsis alba cv. Albatros) roots grown in vitro on modified KNOP medium according to the previously published protocols. ,
as §5, §6

[7] = tested on: Arabidopsis thaliana Col-0; assay: Germination rate and phytotoxicity; type: in vivo; details: for average fraction of germinated seeds: 5 DPS; for main root length / plant weight: 10 DPS
Experimental: Wild-type A. thaliana (Col-0 ecotype) seeds were sterilized with 70% EtOH with 0.1% Tween-20 solution (2 × 1 mL) for 10 min, rinsed with 96% EtOH (1 × 1 mL) for 10 min, and kept in the fridge (4 °C in the dark). Seeds were sown on a sterile 1/2 MS medium supplemented with 0.3% DMSO as a mock and test compounds at 5, 10, 50, and 100 μM concentrations in 0.3% DMSO. Plates were kept in long-day light conditions (22 °C/20 °C, 16 h light/8 h dark, 100 μmol m^–2 s^–1). After 5 days, the germination rate was evaluated. After an additional 5 days, primary root growth was measured with ImageJ software (https://imagej.nih.gov/ij/), and seedlings were weighted.

Skin fibroblasts (BJ) = assay: Resazurin assay, 3-day treatment; type: cell-based, human; details: BJ
Experimental: Skin fibroblasts (BJ) were obtained from the American Type Culture Collection (ATCC, Manassas, VA), while human keratinocytes (HaCaT) were sourced from the German Cancer Research Center in Heidelberg, Germany. Cells were cultured in a standard DMEM medium from Sigma-Aldrich, supplemented with 10% fetal bovine serum, 2 mM glutamine, 100 U/mL penicillin, and 100 μg/mL streptomycin. Cultures were maintained under standard conditions (37 °C, 5% CO2, humidified atmosphere) and subcultured two to three times per week. We assessed the effect of 3-day compound treatments on cell viability using a resazurin reduction assay measuring mitochondrial activity. Approximately 5,000 cells in 80 μL of culture medium were seeded into the wells of a 96-well plate. Twenty-four hours later, 20 μL of 5-fold concentrated test compound solutions was added and tested across three concentrations prepared through 2-fold serial dilutions. The highest final concentration was 40 μM. After 72 h, we added an 11-fold concentrated resazurin solution to the wells, achieving a final concentration of 0.0125 μM. Fluorescence (ex = 570 nm, em = 610 nm) was measured after 3 h of incubation. […]

[8] = tested on: human keratinocytes (HaCaT); assay: Resazurin assay, 3-day treatment; type: cell-based
Experimental: Skin fibroblasts (BJ) were obtained from the American Type Culture Collection (ATCC, Manassas, VA), while human keratinocytes (HaCaT) were sourced from the German Cancer Research Center in Heidelberg, Germany. Cells were cultured in a standard DMEM medium from Sigma-Aldrich, supplemented with 10% fetal bovine serum, 2 mM glutamine, 100 U/mL penicillin, and 100 μg/mL streptomycin. Cultures were maintained under standard conditions (37 °C, 5% CO2, humidified atmosphere) and subcultured two to three times per week. We assessed the effect of 3-day compound treatments on cell viability using a resazurin reduction assay measuring mitochondrial activity. Approximately 5,000 cells in 80 μL of culture medium were seeded into the wells of a 96-well plate. Twenty-four hours later, 20 μL of 5-fold concentrated test compound solutions was added and tested across three concentrations prepared through 2-fold serial dilutions. The highest final concentration was 40 μM. After 72 h, we added an 11-fold concentrated resazurin solution to the wells, achieving a final concentration of 0.0125 μM. Fluorescence (ex = 570 nm, em = 610 nm) was measured after 3 h of incubation.
The disubstituted derivatives i-25 and i-27 were the most toxic in the set, causing around a 50% decrease in viability of HaCaT cells at 40 μM.

[9] = 10 µM group, initial (prior to the treatment)
[10] = 50 µM group, initial (prior to the treatment)
[11] = 100 µM group, initial (prior to the treatment)

CCOc1ccccc1-c1ccc2[nH]ccc2c1 [i-8] gave an average score (C. elegans wild-type N2) of 2.5.

Work on CCOc1ccc(-c2ccc3[nH]ccc3c2)cc1 [i-10] yielded an average score (C. elegans wild-type N2) of 1.8.

Compound CCCOc1ccccc1-c1ccc2[nH]ccc2c1 [i-11] has an average score (C. elegans wild-type N2) of 1.5.

Work on CCOc1cc(-c2ccc3[nH]ccc3c2)ccc1Cl [i-25] yielded an IC50 (C. elegans N2 wild-type) of 9.74 ± 1.65 µM, an IC50 [1] of 9.36 ± 0.43 µM and an IC50 [2] of 7.79 ± 0.36 µM. For the same compound, the IC50 [3] was 9.93 ± 0.68 µM, the IC50 [4] was 8.72 ± 0.13 µM and the average activity counts [5, 9] was 234. For the same compound, the average activity counts ([5]; 10 µM, 48 h) was 221, the average activity counts ([5]; 10 µM, 72 h) was 194 and the average activity counts [5, 10] was 246. For the same compound, the average activity counts ([5]; 50 µM, 48 h) was 209, the average activity counts ([5]; 50 µM, 72 h) was 197 and the average activity counts [5, 11] was 230. It also gave an average activity counts ([5]; 100 µM, 48 h) of 210, an average activity counts ([5]; 100 µM, 72 h) of 203 and an average activity counts [6, 9] of 174. The average activity counts ([6]; 10 µM, 48 h) was 160, the average activity counts ([6]; 10 µM, 72 h) was 171 and the average activity counts [6, 10] was 178. It also gave an average activity counts ([6]; 50 µM, 48 h) of 184, an average activity counts ([6]; 50 µM, 72 h) of 170 and an average activity counts [6, 11] of 172. The average activity counts ([6]; 100 µM, 48 h) was 195, the average activity counts ([6]; 100 µM, 72 h) was 190 and the “average fraction of germinated seeds” value ([7]; 5 µM) was 0.98. The main root length ([7]; 5 µM) was 38.29 mm, the plant weight ([7]; 5 µM) was 30.25 mg and the “average fraction of germinated seeds” value ([7]; 10 µM) was 0.95. The main root length ([7]; 10 µM) was 38.15 mm, the plant weight ([7]; 10 µM) was 31.97 mg and the “average fraction of germinated seeds” value ([7]; 50 µM) was 0.96. For the same compound, the main root length ([7]; 50 µM) was 34.25 mm, the plant weight ([7]; 50 µM) was 27.79 mg and the “Average viability (signal intensity relative to control)” value (Skin fibroblasts (BJ); 10 µM) was 0.92 ± 0.01. The “Average viability (signal intensity relative to control)” value (Skin fibroblasts (BJ); 20 µM) was 0.9 ± 0.05, the “Average viability (signal intensity relative to control)” value (Skin fibroblasts (BJ); 40 µM) was 0.74 ± 0.06 and the “Average viability (signal intensity relative to control)” value ([8]; 10 µM) was 0.93 ± 0.02. For the same compound, the “Average viability (signal intensity relative to control)” value ([8]; 20 µM) was 0.88 ± 0.06, the “Average viability (signal intensity relative to control)” value ([8]; 40 µM) was 0.53 ± 0.1 and the decrease in viability ([8]; 40 µM) was roughly 50%.

CC(C)Oc1cc(-c2ccc3[nH]ccc3c2)ccc1Cl [i-27] was tested, and the IC50 (C. elegans N2 wild-type) was 9.75 ± 1.65 µM, the IC50 [1] was 9.85 ± 0.33 µM and the IC50 [2] was 7.48 ± 0.06 µM. The IC50 [3] was 10.79 ± 0.08 µM, the IC50 [4] was 8.83 ± 0.47 µM and the average activity counts [5, 9] was 242. For the same compound, the average activity counts ([5]; 10 µM, 48 h) was 235, the average activity counts ([5]; 10 µM, 72 h) was 211 and the average activity counts [5, 10] was 248. The average activity counts ([5]; 50 µM, 48 h) was 227, the average activity counts ([5]; 50 µM, 72 h) was 223 and the average activity counts [5, 11] was 213. The average activity counts ([5]; 100 µM, 48 h) was 207, the average activity counts ([5]; 100 µM, 72 h) was 202 and the average activity counts [6, 9] was 169. The average activity counts ([6]; 10 µM, 48 h) was 161, the average activity counts ([6]; 10 µM, 72 h) was 167 and the average activity counts [6, 10] was 189. The average activity counts ([6]; 50 µM, 48 h) was 124, the average activity counts ([6]; 50 µM, 72 h) was 113 and the average activity counts [6, 11] was 169. For the same compound, the average activity counts ([6]; 100 µM, 48 h) was 161, the average activity counts ([6]; 100 µM, 72 h) was 111 and the “average fraction of germinated seeds” value ([7]; 5 µM) was 0.94. For the same compound, the main root length ([7]; 5 µM) was 39.90 mm, the plant weight ([7]; 5 µM) was 33.97 mg and the “average fraction of germinated seeds” value ([7]; 10 µM) was 0.98. For the same compound, the main root length ([7]; 10 µM) was 40.35 mm, the plant weight ([7]; 10 µM) was 35.66 mg and the “average fraction of germinated seeds” value ([7]; 50 µM) was 0.95. The main root length ([7]; 50 µM) was 37.27 mm, the plant weight ([7]; 50 µM) was 30.34 mg and the “Average viability (signal intensity relative to control)” value (Skin fibroblasts (BJ); 10 µM) was 0.92 ± 0.02. For the same compound, the “Average viability (signal intensity relative to control)” value (Skin fibroblasts (BJ); 20 µM) was 0.92 ± 0.03, the “Average viability (signal intensity relative to control)” value (Skin fibroblasts (BJ); 40 µM) was 0.89 ± 0.03 and the “Average viability (signal intensity relative to control)” value ([8]; 10 µM) was 0.78 ± 0.12. For the same compound, the “Average viability (signal intensity relative to control)” value ([8]; 20 µM) was 0.6 ± 0.19, the “Average viability (signal intensity relative to control)” value ([8]; 40 µM) was 0.48 ± 0.21 and the decrease in viability ([8]; 40 µM) was roughly 50%.
